Converted amounts (≈) assume the structure as drawn. Positions of bridges follow the written chain, without caps; N, C: chain ends. Non-standard residues stand in square brackets, D forms with d. Residues, ends and D or L forms follow the SMILES beside them. *: point of attachment. Benzoyl(4-Ph) = O=C(c1ccc(-c2ccccc2)cc1)*; Dab = NCC[C@H](N)C(=O)O
What was measured:
[1] = tested on: Pseudomonas aeruginosa; experiment: Antibacterial activity against Pseudomonas aeruginosa PAO1 assessed as inhibition of bacterial growth incubated for 24 hrs by broth microdilution method; assay type: functional; conditions: read-out: MIC100
[2] = tested on: Escherichia coli; experiment: Antibacterial activity against Escherichia coli assessed as inhibition of bacterial growth incubated for 24 hrs by broth microdilution method; assay type: functional; conditions: read-out: MIC100
[3] = tested on: Klebsiella pneumoniae; experiment: Antibacterial activity against Klebsiella pneumoniae assessed as inhibition of bacterial growth incubated for 24 hrs by broth microdilution method; assay type: functional; conditions: read-out: MIC100
[4] = tested on: Pseudomonas aeruginosa; experiment: Antibacterial activity against Pseudomonas aeruginosa assessed as inhibition of bacterial growth incubated for 24 hrs by broth microdilution method; assay type: functional; conditions: read-out: MIC100
[5] = tested on: Moraxella catarrhalis; experiment: Antibacterial activity against Moraxella catarrhalis assessed as inhibition of bacterial growth incubated for 24 hrs by broth microdilution method; assay type: functional; conditions: read-out: MIC100
[6] = tested on: Escherichia coli; experiment: Antibacterial activity against Escherichia coli ECO+14-2 assessed as inhibition of bacterial growth incubated for 24 hrs by broth microdilution method; assay type: functional; conditions: read-out: MIC100
[7] = tested on: Escherichia coli; experiment: Antibacterial activity against Escherichia coli ECO+14-3 assessed as inhibition of bacterial growth incubated for 24 hrs by broth microdilution method; assay type: functional; conditions: read-out: MIC100
[8] = tested on: Escherichia coli; experiment: Antibacterial activity against Escherichia coli ECO-14-2 assessed as inhibition of bacterial growth incubated for 24 hrs by broth microdilution method; assay type: functional; conditions: read-out: MIC100
[9] = tested on: Klebsiella pneumoniae; experiment: Antibacterial activity against Klebsiella pneumoniae KPN+14-8 assessed as inhibition of bacterial growth incubated for 24 hrs by broth microdilution method; assay type: functional; conditions: read-out: MIC100
[10] = tested on: Klebsiella pneumoniae; experiment: Antibacterial activity against Klebsiella pneumoniae KPN+14-10 assessed as inhibition of bacterial growth incubated for 24 hrs by broth microdilution method; assay type: functional; conditions: read-out: MIC100
[11] = tested on: Klebsiella pneumoniae; experiment: Antibacterial activity against Klebsiella pneumoniae KR15-2 assessed as inhibition of bacterial growth incubated for 24 hrs by broth microdilution method; assay type: functional; conditions: read-out: MIC100
[12] = tested on: Acinetobacter baumannii; experiment: Antibacterial activity against Acinetobacter baumannii ABA15-4 assessed as inhibition of bacterial growth incubated for 24 hrs by broth microdilution method; assay type: functional; conditions: read-out: MIC100
[13] = tested on: Acinetobacter baumannii; experiment: Antibacterial activity against Acinetobacter baumannii ABA15-5 assessed as inhibition of bacterial growth incubated for 24 hrs by broth microdilution method; assay type: functional; conditions: read-out: MIC100
[14] = tested on: Acinetobacter baumannii; experiment: Antibacterial activity against Acinetobacter baumannii ABA15-6 assessed as inhibition of bacterial growth incubated for 24 hrs by broth microdilution method; assay type: functional; conditions: read-out: MIC100
[15] = tested on: Acinetobacter baumannii; experiment: Antibacterial activity against Acinetobacter baumannii AR15-4 assessed as inhibition of bacterial growth incubated for 24 hrs by broth microdilution method; assay type: functional; conditions: read-out: MIC100
[16] = tested on: Pseudomonas aeruginosa; experiment: Antibacterial activity against Pseudomonas aeruginosa PAE15-3 assessed as inhibition of bacterial growth incubated for 24 hrs by broth microdilution method; assay type: functional; conditions: read-out: MIC100
[17] = tested on: Pseudomonas aeruginosa; experiment: Antibacterial activity against Pseudomonas aeruginosa PAE15-5 assessed as inhibition of bacterial growth incubated for 24 hrs by broth microdilution method; assay type: functional; conditions: read-out: MIC100
[18] = tested on: Pseudomonas aeruginosa; experiment: Antibacterial activity against Pseudomonas aeruginosa PAE15-8 assessed as inhibition of bacterial growth incubated for 24 hrs by broth microdilution method; assay type: functional; conditions: read-out: MIC100
[19] = tested on: Pseudomonas aeruginosa; experiment: Antibacterial activity against Pseudomonas aeruginosa PAE15-14 assessed as inhibition of bacterial growth incubated for 24 hrs by broth microdilution method; assay type: functional; conditions: read-out: MIC100
[20] = tested on: Pseudomonas aeruginosa; experiment: Antibacterial activity against Pseudomonas aeruginosa PR15-1 assessed as inhibition of bacterial growth incubated for 24 hrs by broth microdilution method; assay type: functional; conditions: read-out: MIC100
[21] = tested on: Pseudomonas aeruginosa; experiment: Antibacterial activity against Pseudomonas aeruginosa ATCC 27853 assessed as inhibition of bacterial growth incubated for 24 hrs by broth microdilution method; assay type: functional; conditions: read-out: MIC100
[22] = tested on: Moraxella catarrhalis; experiment: Antibacterial activity against Moraxella catarrhalis BCA14-7 assessed as inhibition of bacterial growth incubated for 24 hrs by broth microdilution method; assay type: functional; conditions: read-out: MIC100
[23] = tested on: Moraxella catarrhalis; experiment: Antibacterial activity against Moraxella catarrhalis BCA15-3 assessed as inhibition of bacterial growth incubated for 24 hrs by broth microdilution method; assay type: functional; conditions: read-out: MIC100
[24] = tested on: HK-2; experiment: Cytotoxicity against human HK-2 cells assessed as cell viability incubated for 72 hrs by CCK-8 assay; assay type: cell-based; conditions: hk-2, 72 h
[25] = tested on: Acinetobacter baumannii; experiment: Antibacterial activity against Acinetobacter baumannii assessed as inhibition of bacterial growth incubated for 24 hrs by broth microdilution method; assay type: functional; conditions: read-out: MIC100

| MIC [1] | MIC [2] | MIC [3] | MIC [4] | MIC [5] | MIC [6] | MIC [7] | MIC [8] | MIC [9] | MIC [10] | MIC [11] | MIC [12] | MIC [13] | MIC [14] | MIC [15] | MIC [16] | MIC [17] | MIC [18] | MIC [19] | MIC [20] | Compound | further results |
| --- | --- | --- | --- | --- | --- | --- | --- | --- | --- | --- | --- | --- | --- | --- | --- | --- | --- | --- | --- | --- | --- |
| 1 µg/mL (≈ 0.777 µM) | 0.06 µg/mL (≈ 0.0466 µM) | 0.5 µg/mL (≈ 0.389 µM) | 0.03 µg/mL (≈ 0.0233 µM) | > 32 µg/mL | 0.5 µg/mL (≈ 0.389 µM) | 0.125 µg/mL (≈ 0.0972 µM) | 0.06 µg/mL (≈ 0.0466 µM) | 1 µg/mL (≈ 0.777 µM) | 0.5 µg/mL (≈ 0.389 µM) | 0.5 µg/mL (≈ 0.389 µM) | 0.03 µg/mL (≈ 0.0233 µM) | 0.03 µg/mL (≈ 0.0233 µM) | < 0.015 µg/mL | 0.03 µg/mL (≈ 0.0233 µM) | 0.5 µg/mL (≈ 0.389 µM) | 0.25 µg/mL (≈ 0.194 µM) | 0.5 µg/mL (≈ 0.389 µM) | 0.25 µg/mL (≈ 0.194 µM) | 0.25 µg/mL (≈ 0.194 µM) | CC(C)CCCCC(=O)N[C@@H](CCN)C(=O)N[C@H](C(=O)N[C@@H](CCN)C(=O)N[C@H]1CCNC(=O)[C@H]([C@@H](C)O)NC(=O)[C@H](CCN)NC(=O)[C@H](CCN)NC(=O)[C@H](CC(C)C)NC(=O)[C@@H](Cc2ccccc2)NC(=O)[C@H](CCN)NC1=O)[C@@H](C)OC(=O)[C@@H]1CCCN1 | MIC [21]: 0.03 µg/mL (≈ 0.0233 µM); MIC [22]: 32 µg/mL (≈ 24.9 µM); MIC [23]: 1 µg/mL (≈ 0.777 µM); Activity [24]: Non-Toxic |
| 4 µg/mL (≈ 3.22 µM) | 0.5 µg/mL (≈ 0.402 µM) | 2 µg/mL (≈ 1.61 µM) | 0.06 µg/mL (≈ 0.0483 µM) | 8 µg/mL (≈ 6.43 µM) | 2 µg/mL (≈ 1.61 µM) | 1 µg/mL (≈ 0.804 µM) | 0.5 µg/mL (≈ 0.402 µM) | 4 µg/mL (≈ 3.22 µM) | 2 µg/mL (≈ 1.61 µM) | 2 µg/mL (≈ 1.61 µM) | 0.06 µg/mL (≈ 0.0483 µM) | 0.06 µg/mL (≈ 0.0483 µM) | 0.125 µg/mL (≈ 0.101 µM) | 0.06 µg/mL (≈ 0.0483 µM) | 0.5 µg/mL (≈ 0.402 µM) | 0.125 µg/mL (≈ 0.101 µM) | 0.125 µg/mL (≈ 0.101 µM) | 0.125 µg/mL (≈ 0.101 µM) | 5 µg/mL (≈ 4.02 µM) | CC(C)C[C@@H]1NC(=O)[C@@H](Cc2ccccc2)NC(=O)[C@H](CCN)NC(=O)[C@@H](NC(=O)[C@H](CCN)NC(=O)[C@@H](NC(=O)[C@H](CCN)NC(=O)c2ccc(-c3ccccc3)cc2)[C@@H](C)O)CCNC(=O)[C@H]([C@@H](C)O)NC(=O)[C@H](CCN)NC(=O)[C@H](CCN)NC1=O ({Benzoyl(4-Ph)}-[Dab]T[Dab][Dab][Dab][dF]L[Dab][Dab]T; lactam 4-C) | MIC [25]: 0.06 µg/mL (≈ 0.0483 µM); MIC [21]: 0.06 µg/mL (≈ 0.0483 µM); MIC [22]: 16 µg/mL (≈ 12.9 µM); MIC [23]: 1 µg/mL (≈ 0.804 µM) |
| 2 µg/mL (≈ 1.52 µM) | 0.25 µg/mL (≈ 0.19 µM) | 0.5 µg/mL (≈ 0.379 µM) | 0.25 µg/mL (≈ 0.19 µM) | > 32 µg/mL |  |  |  |  |  |  |  |  |  |  |  |  |  |  |  | CC[C@H](C)CCCCC(=O)N[C@@H](CCN)C(=O)N[C@H](C(=O)N[C@@H](CCN)C(=O)N[C@H]1CCNC(=O)[C@H]([C@@H](C)O)NC(=O)[C@H](CCN)NC(=O)[C@H](CCN)NC(=O)[C@H](CC(C)C)NC(=O)[C@@H](Cc2ccccc2)NC(=O)[C@H](CCN)NC1=O)[C@@H](C)OC(=O)[C@@H](N)CC(=O)O | MIC [25]: 0.125 µg/mL (≈ 0.0948 µM); Activity [24]: Non-Toxic |

— ChEMBL document CHEMBL4825673, “Total and Semisyntheses of Polymyxin Analogues with 2-Thr or 10-Thr Modifications to Decipher the Structure-Activity Relationship and Improve the Antibacterial Activity” (J Med Chem, 2021)
